According to patent publication US7135292B2, “Analysis and modification of gene expression in marine invertebrate cells” (Harbor Branch Oceanographic Institution, Inc., priority 2002, dated 2006):

Tested on: Axinella corrugata cell cultures
Experiment: Human-sequence microarray (Gene Filters) analysis of gene expression, PHA-treated vs untreated sponge cell cultures
Type: cell-based
Settings: PHA treated/untreated, 12 h
Text: Sponge Cells. Cells were obtained from cryopreserved stocks at Harbor Branch Oceanographic Institution. All cells were derived from Axinella corrugata specimens collected in the waters of Florida, the Bahamas, and the Caribbean Sea, and were cryopreserved according to Pomponi et al. (Pomponi et al. 1997b supra). This sponge is relatively common and easy to collect, amenable to culture efforts, and produces the bioactive compound, stevensine, in vitro (Pomponi et al. 1997b supra). Enriched fractions of dissociated sponge cells were prepared, cryopreserved, and thawed according to previously published methods (Pomponi et al. 1997b supra). Cells were incubated at 22–25° C. in a growth medium consisting of a modified and supplemented commercial formulation (Willoughby and Pomponi 2000 supra). The length of the incubation period was based on my unpublished observation of elevated DNA and protein contents (9%, P=0.034, and 9%, P=0.038, respectively) in PHA-treated cultures, according to fluorescent assays of 6 replicate comparisons (Willoughby and Pomponi 2000 supra). Since the effects were observed between 6 and 18 hours after treatment, cells were cultured for 12-hour periods representing the center point of the period of observed changes. Two sets of cultures were incubated with approximately 2×10^8 cells per T-75 flask—a control set and an experimental set treated with 1.5% phytohemagglutinin (PHA) (Life Technologies, M-form).
RNA Isolation. RNA isolation was performed on unrinsed, pelleted cells. Pellets were quickly frozen in a dry ice alcohol bath and stored at −70° C. until RNA isolation. The Qiagen RNeasy® protocol was used, with the following modifications. Samples were disrupted with a micropestle or homogenized by the rotor-stator method, using twice the recommended volume of lysis solution. Prior to column loading, samples were centrifuged through a Qiashredder® column to complete homogenization and remove insoluble material. Supernatant was collected for use in the rest of the protocol. During the first wash step, samples were incubated on the column with DNase 1 (Qiagen or Ambion) for 15 minutes. After the final wash, samples were incubated on the column with the RNase free elution water for 15 minutes prior to elution. Sub-samples were diluted 20× and quantified on a Genequant® spectrophotometer.
cDNA Labeling. Sub-samples of the isolated total RNA (8 μl) were primed with oligo dT (10–20 mer) (Research Genetics, Inc.) for 10 minutes at 70° C., then briefly chilled on ice, followed by addition of 2 volumes of RT cocktail based upon the Life Technologies Superscript II® protocol (containing dATP, dGTP, dTTP, and α-^33P dCTP [NEN Easy Tides®, 3000 Ci/mmol]). The mixture was incubated for 90 minutes at 37° C., and diluted to 100 μl for purification on a Bio-Spin column (Boi-Rad) according to the Gene Filter® (Research Genetics, Inc.) recommended protocol. The resultant labeled probes were then denatured for 3 minutes in a boiling water bath prior to incorporation into the hybridization solution.
Microarrays. Research Genetics Gene Filters®, version 211, were employed in this study. These microarrays feature over 4000 distinct sequence-verified genes spotted onto a 5×7 cm nylon membrane. The DNA at each spot represents approximately 1 kb from the 3′ end of the gene. The microarrays also include spots of total genomic DNA (see FIG. 5). The 211 series is constructed from human sequences. A cross-referenced database listing of all the genes represented on the array is available at http://www.resgen.com. The 2 genes referenced in this work carry the I.M.A.G.E. Consortium (Lennon, G. G., C. Auffray, M. Polymeropoulos and M. B. Soares 1996, Genomics 33:151–152), Clone IDs 81408 (calcineurin B) and 858292 (cdc10).
Hybridization. […]

phytohemagglutinin [PHA]
Ratio, MHC class II DQ-beta associated with DR2, DQw1 protein (No. 1): 0.492 | Ratio, Collagen, type II, alpha 1 (primary osteoarthritis, spondyloepiphyseal dysplasia, congenital) (No. 2): 0.384 | Ratio, Hemoglobin, alpha 1 (No. 3): 0.157 | Ratio, Heat shock 60 kD protein 1 (chaperonin) (No. 4): 2.443 | Ratio, Interleukin 7 receptor (No. 5): 0.156 | Ratio, Cytochrome P450, subfamily IVA, polypeptide 11 (No. 6): 0.310 | Ratio, Human metallothionein I-B gene (No. 7): 0.388 | Ratio, Homo sapiens NF-E2 protein (NF-E2) mRNA, complete cds (No. 8): 2.223 | Ratio, Tissue inhibitor of metalloproteinase 1 (erythroid potentiating activity, collagenase inhibitor) (No. 9): 0.252 | Ratio, Adenylate kinase 1 (No. 10): 0.055 | Ratio, Oxytocin receptor (No. 11): 0.084 | Ratio, Homo sapiens mRNA for epiregulin, complete cds (No. 12): 0.101 | Ratio, Collagen, type V, alpha (No. 13): 0.137 | Ratio, MpV17 transgene, murine homolog, glomerulosclerosis (No. 14): 0.319 | Ratio, Tyrosine 3-monooxygenase/tryptophan 5-monooxygenase activation protein, zeta polypeptide (No. 15): 9.835 | Ratio, Von Hippel-Lindau syndrome (No. 16): 2.707 | Ratio, Homo sapiens TNF-alpha stimulated ABC protein (ABC50) mRNA, complete cds (No. 17): 3.865 | Ratio, Human brain mRNA for photolyase homolog, complete cds (No. 18): 2.486 | Ratio, Human BTG2 (BTG2) mRNA, complete cds (No. 19): 2.431 | Ratio, Membrane metallo-endopeptidase (neutral endopeptidase, enkephalinase, CALLA, CD10) (No. 20): 0.169 | Ratio, Calcineurin B (No. 21): 0.318 | Ratio, Cell division cycle 10 (homologous to CDC10 of S. cerevisiae) (No. 22): 2.302 | Ratio, Human renal cell carcinoma antigen RAGE-1 mRNA, complete putative cds (No. 23): 0.477 | Ratio, Homo sapiens putative OSP like protein mRNA, partial cds (No. 24): 0.491 | Ratio, H. sapiens mRNA for translin associated protein X (No. 25): 2.631 | Ratio, H. sapiens mRNA for phosphate cyclase (No. 26): 0.395 | Ratio, JNK activating kinase 1 (No. 27): 0.170 | Ratio, Collagen, type IX, alpha 3 (No. 28): 47.686 | Ratio, Non-catalytic region of tyrosine kinase (No. 29): 0.233 | Ratio, Triosephosphate isomerase 1 (No. 30): 0.357 | Ratio, Calreticulin Precursor (No. 31): 12.868 | Ratio, Human transportin (TRN) mRNA, complete cds (No. 32): 3.328 | Ratio, Fanconi anemia complementation group C (No. 33): 0.342 | Ratio, Zinc finger protein basonuclin (No. 34): 0.417 | Ratio, Autosomal dominant polycystic kidney disease type II (No. 35): 0.224 | Ratio, Double-stranded RNA adenosine deaminase (No. 36): 0.456 | Ratio, Dual specificity protein phosphatase PAC-1 (No. 37): 0.175 | Ratio, Homo sapiens Tax interaction protein 33 mRNA, partial cds (No. 38): 0.426 | Ratio, H. sapiens mRNA for M-phase phosphoprotein, mpp5 (No. 39): 2.970 | Ratio, Nucleolysin TIA-1 (No. 40): 0.430 | Ratio, Homo sapiens mRNA for ISLR, complete cds (No. 41): 12.597 | Ratio, H. sapiens mRNA for M130 antigen (No. 42): 0.443 | Ratio, Human tRNA-guanine transglycosylase mRNA, complete cds (No. 43): 0.213 | Ratio, Homo sapiens mRNA for vesicle associated membrane protein 2 (VAMP2) (No. 44): 3.925 | Ratio, Erythrocyte membrane protein band 4.9 (dematin) (No. 45): 0.408 | Ratio, 6-Pyruvol tetrahydrobiopterin synthase (No. 46): 0.440 | Ratio, Villin (No. 47): 0.008 | Ratio, Multidrug reistance protein 1 (No. 48): 3.272 | Ratio, Human histone H2B.1 mRNA, 3′ end (No. 49): 0.247 | Ratio, Human heregulin-betal gene, complete cds (No. 50): 5.582 | Ratio, Amyloid P component, serum (No. 51): 3.994 | Ratio, Alternative guanine nucleotide-binding regulatory protein (G) alpha-inhibitory-subunit (No. 52): 0.462 | Ratio, Ribosomal protein S6 kinase, 90 kD, polypeptide 2 (No. 53): 0.252 | Ratio, Interleukin 15 receptor alpha chain (No. 54): 3.996 | Ratio, Cadherin 11 (OB-cadherin) (No. 55): 0.425
